From article PMC6171417, “Carbonic anhydrase inhibition with a series of novel benzenesulfonamide-triazole conjugates” (Journal of Enzyme Inhibition and Medicinal Chemistry, 2018)

Tests used:
Assay in all cases: cells
Set-up in all cases: species or system NCI human tumour cell line panel
A549/ATCC = conditions: Homo sapiens, A549; growth inhibition (GI%), single dose
BT-549 = conditions: Homo sapiens, BT-549; growth inhibition (GI%), single dose
CCRF-CEM = conditions: Homo sapiens, CCRF-CEM; growth inhibition (GI%), single dose
HCT-116 = conditions: Homo sapiens, HCT-116; growth inhibition (GI%), single dose
HCT-15 = conditions: Homo sapiens, HCT-15; growth inhibition (GI%), single dose
HL-60(TB) = conditions: Homo sapiens, HL-60; growth inhibition (GI%), single dose
HOP-92 = conditions: Homo sapiens, HOP-92; growth inhibition (GI%), single dose
HS 578T = conditions: Homo sapiens, Hs-578T; growth inhibition (GI%), single dose
KM12 = conditions: Homo sapiens, KM12; growth inhibition (GI%), single dose
M14 = conditions: Homo sapiens, M14; growth inhibition (GI%), single dose
MCF7 = conditions: Homo sapiens, MCF7; growth inhibition (GI%), single dose
MDA-MB-468 = conditions: Homo sapiens, MDA-MB-468; growth inhibition (GI%), single dose
MOLT-4 = conditions: Homo sapiens, MOLT-4; growth inhibition (GI%), single dose
NCI-H226 = conditions: Homo sapiens, NCI-H226; growth inhibition (GI%), single dose
NCI-H322M = conditions: Homo sapiens, NCI-H322M; growth inhibition (GI%), single dose
NCI-H522 = conditions: Homo sapiens, NCI-H522; growth inhibition (GI%), single dose
OVCAR-5 = conditions: Homo sapiens, OVCAR-5; growth inhibition (GI%), single dose
PC-3 = conditions: Homo sapiens, PC-3; growth inhibition (GI%), single dose
RPMI-8226 = conditions: Homo sapiens, RPMI-8226; growth inhibition (GI%), single dose
SF-268 = conditions: Homo sapiens, SF-268; growth inhibition (GI%), single dose
SF-295 = conditions: Homo sapiens, SF-295; growth inhibition (GI%), single dose
SK-OV-3 = conditions: Homo sapiens, SK-OV-3; growth inhibition (GI%), single dose
SNB-19 = conditions: Homo sapiens, SNB-19; growth inhibition (GI%), single dose
SNB-75 = conditions: Homo sapiens, SNB-75; growth inhibition (GI%), single dose
SR = conditions: Homo sapiens, SR; growth inhibition (GI%), single dose
TK-10 = conditions: Homo sapiens, TK-10; growth inhibition (GI%), single dose
U251 = conditions: Homo sapiens, U-251; growth inhibition (GI%), single dose
UACC-257 = conditions: Homo sapiens, UACC-257; growth inhibition (GI%), single dose
UACC-62 = conditions: Homo sapiens, UACC-62; growth inhibition (GI%), single dose
UO-31 = conditions: Homo sapiens, UO-31; growth inhibition (GI%), single dose

N#Cc1nnn(-c2ccc(S(N)(=O)=O)cc2)c1NC(=O)CCl [compound 5, 5]
inhibition at 10 µM (A549/ATCC): 7.2% | inhibition at 10 µM (BT-549): 3.1% | inhibition at 10 µM (CCRF-CEM): 11.3% | inhibition at 10 µM (HCT-116): 5.4% | inhibition at 10 µM (HCT-15): 4.1% | inhibition at 10 µM (HL-60(TB)): 22.5% | inhibition at 10 µM (HOP-92): 3.9% | inhibition at 10 µM (HS 578T): 99.8% | inhibition at 10 µM (KM12): 5.2% | inhibition at 10 µM (M14): 4.7% | inhibition at 10 µM (MCF7): 9.1% | inhibition at 10 µM (MDA-MB-468): 1.3% | inhibition at 10 µM (MOLT-4): 7.7% | inhibition at 10 µM (NCI-H226): 4.6% | inhibition at 10 µM (NCI-H322M): 6.6% | inhibition at 10 µM (NCI-H522): 5.1% | inhibition at 10 µM (OVCAR-5): 3.4% | inhibition at 10 µM (PC-3): 10.3% | inhibition at 10 µM (RPMI-8226): 8.7% | inhibition at 10 µM (SF-268): 2.5% | inhibition at 10 µM (SF-295): 1.8% | inhibition at 10 µM (SK-OV-3): 3.5% | inhibition at 10 µM (SNB-19): 3.8% | inhibition at 10 µM (SNB-75): 14.5% | inhibition at 10 µM (SR): 4.1% | inhibition at 10 µM (TK-10): 3.6% | inhibition at 10 µM (U251): 7.7% | inhibition at 10 µM (UACC-257): 11.1% | inhibition at 10 µM (UACC-62): 3.4% | inhibition at 10 µM (UO-31): 13.5%
